Laboratory results as given in ChEMBL document CHEMBL5727909, “Pyridine derivatives and their use in the treatment of cancer and hemoglobinopathies” (2020).

Target: Protein arginine N-methyltransferase 5 (Homo sapiens, UniProt O14744)
Test: Biochemical Assay : The 6 μL reactions are run in Greiner brand black 384-well low volume assay plates. All reactions contained assay buffer (phosphate buffered saline, 0.01% (v/v) Tween-20, 0.01% (w/v) albumin from chicken egg white, 1 mM Dithiothreitol, 1 μM peptide substrate, 1 μM S-Adenosyl methionine, and 15 ng/reaction enzyme, with the enzyme being omitted from negative control reactions. Compounds were added in a volume of 100 nL from dilution series prepared in DMSO, positive and negative control reactions receiving the same volume DMSO without compound. The plates were sealed with adhesive seals and incubated for 4 hours at 37 degree Celsius. Reaction progress was measured using the Transcreener EPIGEN methyltransferase assay (BellBrook Labs, Madison, Wis.) as recommended by the manufacturer. To each reaction 2 μL detection mix were added, containing coupling enzymes, fluorescence polarisation tracer, and AMP antibody. Plates were incubated for 90 minutes before being read on a PerkinElmer EnVision™ plate reader in fluorescence polarisation mode.

Chain of Protein arginine N-methyltransferase 5 (O14744 whole entry): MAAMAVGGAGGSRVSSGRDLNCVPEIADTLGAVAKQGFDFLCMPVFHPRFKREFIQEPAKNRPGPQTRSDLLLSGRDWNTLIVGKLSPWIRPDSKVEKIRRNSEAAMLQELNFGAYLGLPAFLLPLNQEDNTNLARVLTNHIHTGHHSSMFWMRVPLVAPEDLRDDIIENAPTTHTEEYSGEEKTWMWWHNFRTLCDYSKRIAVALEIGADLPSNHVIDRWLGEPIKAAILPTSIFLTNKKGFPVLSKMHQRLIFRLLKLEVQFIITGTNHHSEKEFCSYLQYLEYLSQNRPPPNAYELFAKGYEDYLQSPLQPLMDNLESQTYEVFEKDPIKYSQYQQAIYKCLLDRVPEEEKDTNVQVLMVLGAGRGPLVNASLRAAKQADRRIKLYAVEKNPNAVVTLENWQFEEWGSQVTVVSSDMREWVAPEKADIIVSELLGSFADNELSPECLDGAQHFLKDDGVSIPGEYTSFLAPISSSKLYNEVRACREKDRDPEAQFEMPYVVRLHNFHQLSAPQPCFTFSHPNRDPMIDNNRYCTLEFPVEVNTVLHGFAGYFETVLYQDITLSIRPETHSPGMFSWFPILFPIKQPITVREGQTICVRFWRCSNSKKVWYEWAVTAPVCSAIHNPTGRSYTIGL

IC50: 105 nM
SMILES: CC(=O)N1CCC(Nc2nccc(C(=O)NC[C@@H](O)CNC3CC4C=CC=CC4C3)c2C)CC1 (stereo partly specified)
